According to ChEMBL document CHEMBL1201862, “PubChem BioAssay data set” (2004):
The source made the active and inactive calls.

What was measured:
[1] = A cytotoxicity screen of small molecule inhibitors of the PhoP region in Salmonella typhi identified in the primary screen. [Related pubchem assays: 1850, 1864, 1985 ]; type: functional
[2] = growth inhibition of PfATP4-mutant resistant parasites – NITD609-resistant line, SYBR Green, dry powder, dose response (AID 1159571); type: functional, cell-based;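 also: parasites synchronized at ring stage by sorbitol before testing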
[3] = P. falciparum Dd2 growth inhibitors, dose response, SYBR Green, cherry-picked samples (AID 1159567); type: functional, cell-based
[4] = toxicity to human HepG2 hepatoma cells – cell-based, plate reader, dry powder samples, cytotoxicity control, dose response (AID 1159569); type: functional;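 also: inhibitor potency with signal falling toward the positive control level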
[5] = Dd2 malaria parasite growth inhibition potency – SYBR Green, dry powder samples, dose response (AID 1159566); type: functional, cell-based;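 also: potency for growth inhibition with lower SYBR green DNA signal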
[6] = growth inhibition of yeast DHODH-expressing 3D7 parasites – SYBR Green, dry powder samples, dose response (AID 1159570); type: functional, cell-based;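 also: parasite growth measured after 72 hours of compound exposure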
Mucolipin-3 = target: T1, Mucolipin-3 (Homo sapiens, UniProt Q8TDD5); assay: Dose response cell-based high-throughput screening assay for agonists of the transient receptor potential channel ML3 (TRPML3). [Related pubchem assays: 1526, 1424, 1448 ]; type: functional
T1 sequence (Q8TDD5 whole entry): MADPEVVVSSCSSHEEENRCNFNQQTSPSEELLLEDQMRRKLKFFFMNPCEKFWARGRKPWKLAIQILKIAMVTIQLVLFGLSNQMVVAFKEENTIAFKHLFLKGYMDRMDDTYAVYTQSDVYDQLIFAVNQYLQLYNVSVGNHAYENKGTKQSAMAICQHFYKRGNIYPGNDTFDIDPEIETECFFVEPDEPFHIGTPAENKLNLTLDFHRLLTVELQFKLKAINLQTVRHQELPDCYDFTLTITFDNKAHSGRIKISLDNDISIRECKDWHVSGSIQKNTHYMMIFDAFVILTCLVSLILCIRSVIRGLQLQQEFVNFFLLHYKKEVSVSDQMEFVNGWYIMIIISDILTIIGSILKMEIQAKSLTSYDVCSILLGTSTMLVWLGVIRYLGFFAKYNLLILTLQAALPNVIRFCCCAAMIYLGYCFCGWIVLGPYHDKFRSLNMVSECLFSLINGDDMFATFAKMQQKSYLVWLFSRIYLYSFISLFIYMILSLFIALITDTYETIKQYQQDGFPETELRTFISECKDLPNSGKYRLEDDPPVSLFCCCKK

Ion channel NompC = Ion channel NompC (Danio rerio, UniProt Q7T1G6); assay: Fluorescence counterscreen assay for TRPML3 agonists: dose response cell-based high-throughput screening assay to identify agonists of the transient receptor potential channel N1 (TRPN1). [Related pubchem assays: 1526, 1424, 1448 ]; type: functional
Sequence of Ion channel NompC (Q7T1G6 whole entry): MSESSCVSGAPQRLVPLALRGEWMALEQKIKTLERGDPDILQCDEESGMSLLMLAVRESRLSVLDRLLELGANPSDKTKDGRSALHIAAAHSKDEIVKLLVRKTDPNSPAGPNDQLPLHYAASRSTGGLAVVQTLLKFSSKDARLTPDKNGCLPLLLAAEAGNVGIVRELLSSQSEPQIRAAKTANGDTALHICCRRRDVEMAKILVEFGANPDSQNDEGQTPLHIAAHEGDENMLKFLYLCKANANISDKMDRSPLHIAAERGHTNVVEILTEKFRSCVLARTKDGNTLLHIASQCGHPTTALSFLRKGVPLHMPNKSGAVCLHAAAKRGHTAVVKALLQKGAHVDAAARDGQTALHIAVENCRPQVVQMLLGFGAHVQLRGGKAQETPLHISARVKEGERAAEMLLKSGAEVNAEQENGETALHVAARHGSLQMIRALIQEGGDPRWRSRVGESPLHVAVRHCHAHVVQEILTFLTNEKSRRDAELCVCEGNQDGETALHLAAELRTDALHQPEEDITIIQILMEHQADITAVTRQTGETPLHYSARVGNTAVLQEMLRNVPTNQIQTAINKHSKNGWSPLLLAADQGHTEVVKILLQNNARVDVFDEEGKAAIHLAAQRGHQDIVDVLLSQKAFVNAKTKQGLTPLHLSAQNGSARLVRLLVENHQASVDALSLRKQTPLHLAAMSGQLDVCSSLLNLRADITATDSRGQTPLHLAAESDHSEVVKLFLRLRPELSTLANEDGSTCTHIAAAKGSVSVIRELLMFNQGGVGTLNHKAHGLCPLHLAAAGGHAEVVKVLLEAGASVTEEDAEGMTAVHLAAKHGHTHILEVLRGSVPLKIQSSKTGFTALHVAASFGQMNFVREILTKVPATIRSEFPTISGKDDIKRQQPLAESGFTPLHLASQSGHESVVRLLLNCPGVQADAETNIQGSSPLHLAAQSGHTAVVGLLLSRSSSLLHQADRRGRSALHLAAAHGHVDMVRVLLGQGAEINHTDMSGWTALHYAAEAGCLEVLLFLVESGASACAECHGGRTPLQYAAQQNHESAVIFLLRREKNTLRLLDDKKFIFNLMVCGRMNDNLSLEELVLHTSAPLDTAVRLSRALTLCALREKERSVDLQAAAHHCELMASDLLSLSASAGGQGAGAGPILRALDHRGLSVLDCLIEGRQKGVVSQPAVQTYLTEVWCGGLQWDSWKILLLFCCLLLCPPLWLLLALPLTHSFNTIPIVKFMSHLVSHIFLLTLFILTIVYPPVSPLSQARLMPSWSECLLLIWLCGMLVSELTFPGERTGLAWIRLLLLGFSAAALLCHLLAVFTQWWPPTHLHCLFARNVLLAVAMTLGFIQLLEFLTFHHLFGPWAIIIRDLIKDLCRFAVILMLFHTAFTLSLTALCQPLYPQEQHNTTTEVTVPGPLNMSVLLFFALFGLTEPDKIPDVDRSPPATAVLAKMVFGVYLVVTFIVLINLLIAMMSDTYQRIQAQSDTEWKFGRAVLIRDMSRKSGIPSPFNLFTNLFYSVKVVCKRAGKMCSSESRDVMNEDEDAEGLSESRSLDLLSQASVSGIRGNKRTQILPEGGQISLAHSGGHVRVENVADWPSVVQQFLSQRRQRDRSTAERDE

Kallikrein-7 = Kallikrein-7 (Homo sapiens, UniProt P49862); assay: Fluorescence Intensity-based biochemical primary high throughput dose response assay to identify activators of kallikrein-7 (K7) zymogen.
Sequence of Kallikrein-7 (P49862 whole entry): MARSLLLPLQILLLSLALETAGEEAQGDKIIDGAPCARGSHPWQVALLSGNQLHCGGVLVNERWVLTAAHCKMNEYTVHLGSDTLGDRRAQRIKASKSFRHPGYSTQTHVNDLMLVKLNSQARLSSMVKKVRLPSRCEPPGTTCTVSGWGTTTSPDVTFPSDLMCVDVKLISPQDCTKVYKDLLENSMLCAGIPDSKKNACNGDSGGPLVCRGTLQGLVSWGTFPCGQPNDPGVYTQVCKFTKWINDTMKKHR

Aminopeptidase N = target: T2, Aminopeptidase N (Plasmodium falciparum FcB1/Columbia, UniProt O96935); assay: malaria alanyl aminopeptidase activity blockers – biochemical, fluorogenic H-Leu-NHMec substrate, 1536-well (AID 1445); parameters: species or system Plasmodium falciparum 3D7, 3D7
T2 sequence (O96935 whole entry): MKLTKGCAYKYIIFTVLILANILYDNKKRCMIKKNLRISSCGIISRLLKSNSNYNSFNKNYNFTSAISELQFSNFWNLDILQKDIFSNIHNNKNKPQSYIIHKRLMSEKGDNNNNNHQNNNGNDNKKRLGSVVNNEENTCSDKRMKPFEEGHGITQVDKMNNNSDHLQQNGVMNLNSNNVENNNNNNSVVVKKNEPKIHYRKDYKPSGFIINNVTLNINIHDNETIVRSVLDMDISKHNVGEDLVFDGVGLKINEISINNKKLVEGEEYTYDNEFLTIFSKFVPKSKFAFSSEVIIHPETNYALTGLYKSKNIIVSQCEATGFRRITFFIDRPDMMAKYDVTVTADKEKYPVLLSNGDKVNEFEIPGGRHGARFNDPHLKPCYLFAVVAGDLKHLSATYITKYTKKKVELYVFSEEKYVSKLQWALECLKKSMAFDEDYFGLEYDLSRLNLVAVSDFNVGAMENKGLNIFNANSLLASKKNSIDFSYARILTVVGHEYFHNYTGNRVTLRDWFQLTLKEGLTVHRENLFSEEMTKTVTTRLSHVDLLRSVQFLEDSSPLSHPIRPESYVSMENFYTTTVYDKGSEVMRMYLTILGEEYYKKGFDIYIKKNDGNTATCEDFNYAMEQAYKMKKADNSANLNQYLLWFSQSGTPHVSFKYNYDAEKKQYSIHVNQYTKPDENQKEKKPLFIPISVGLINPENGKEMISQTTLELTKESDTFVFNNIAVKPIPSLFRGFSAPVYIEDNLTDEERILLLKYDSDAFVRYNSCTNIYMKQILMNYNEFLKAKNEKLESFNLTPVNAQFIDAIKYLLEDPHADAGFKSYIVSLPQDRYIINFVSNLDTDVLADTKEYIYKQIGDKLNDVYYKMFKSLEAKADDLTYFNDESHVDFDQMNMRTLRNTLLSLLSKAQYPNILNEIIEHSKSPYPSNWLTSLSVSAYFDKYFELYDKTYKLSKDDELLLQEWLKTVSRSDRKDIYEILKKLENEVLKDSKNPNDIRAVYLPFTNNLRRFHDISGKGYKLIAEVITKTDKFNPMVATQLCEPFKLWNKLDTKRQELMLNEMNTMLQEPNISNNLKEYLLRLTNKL

Caspase-6 = target: T3, Caspase-6 (Homo sapiens, UniProt P55212); assay: inhibition of CASP6 peptide cleavage – biochemical, VEID-R110 fluorescence, cherry-pick, dose response (AID 720632)
T3 sequence (P55212 whole entry): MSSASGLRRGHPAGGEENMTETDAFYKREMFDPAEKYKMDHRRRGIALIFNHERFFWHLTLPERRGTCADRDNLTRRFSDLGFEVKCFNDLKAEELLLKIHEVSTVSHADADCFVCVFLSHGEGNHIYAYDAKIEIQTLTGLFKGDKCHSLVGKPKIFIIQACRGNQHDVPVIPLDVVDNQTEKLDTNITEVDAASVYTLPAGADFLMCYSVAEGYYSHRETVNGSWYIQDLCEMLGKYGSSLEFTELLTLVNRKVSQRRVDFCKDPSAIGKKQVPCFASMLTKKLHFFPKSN

SMILES: C[N+]12CN3CN(CN(C3)C1)C2
- EC50 [1]: > 50 µM (active)

SMILES: OC[C@@H]1[C@H](c2ccc(C3=CCCC3)cc2)[C@@H](CNC2CCCC2)N1CC1CC1
- AC50 [2]: 0.78 µM (active)
- AC50 [3]: 1.52 µM (active)
- AC50 [4]: 21.1 µM (active)
- AC50 [5]: 0.843 µM (active)
- AC50 [6]: 1.2 µM (active)

SMILES: Cc1cccc(CC2CC(=O)N(C3CCCCC3)C2=O)c1 (centres undefined)
- EC50 (Mucolipin-3): 3.41 µM (active)
- EC50 (Ion channel NompC): > 29.9 µM (not active)

SMILES: CN(C)/C=N/c1ncc(C(=O)c2ccc(Cl)cc2)s1
- EC50 [1]: > 50 µM (active)

SMILES: COc1cccc(NC(=O)N(C)C[C@@H]2Oc3cc(C#Cc4ccc(F)cc4)ccc3S(=O)(=O)N([C@@H](C)CO)C[C@@H]2C)c1
- AC50 [2]: 1.22 µM (active)
- AC50 [3]: 2 µM (active)
- AC50 [4]: > 100 µM (inactive)
- AC50 [5]: 1.18 µM (active)
- AC50 [6]: 1.04 µM (active)

SMILES: Nc1nccnc1C(=O)OCc1nc2sc3c(c2c(=O)[nH]1)CCCC3
- EC50 (Kallikrein-7): 6.32 µM (active)

SMILES: CC(=O)Nc1ccc(C2Nc3ccccc3C(=O)N2C2CCCCC2)cc1 (centres undefined)
- EC50 (Kallikrein-7): > 69.5 µM (inactive)

SMILES: CC1CCCCC1NC(=O)CSc1nnc(-c2ccccc2)n1N (centres undefined)
- IC50 (Aminopeptidase N): 46.8 µM (active)

SMILES: Nc1nc(-c2ccccc2)nc(O)c1N=O
- AC50 (Caspase-6): 11.6 µM (active)

SMILES: Cc1cccn2c(=O)c3cc(C(=O)NC4CCS(=O)(=O)C4)sc3nc12 (centres undefined)
- EC50 (Kallikrein-7): 25.1 µM (inactive)
